Patent US20080027075A1, “Quaternary Amino-Function Chalcones” (Lica Pharmaceuticals A/S, priority 2003, published 2008)
Converted amounts (≈) assume the structure as drawn. “Also recorded” adds a separate entry of the source.

How the values were obtained:
[1] = system: Staphylococcus aureus ATCC29213; experiment: MIC determination in broth microdilution assay; format: cell-based; details: A: Staphylococcus aureus ATCC29213; MH-broth microdilution
[2] = system: Staphylococcus aureus ATCC33591 (resistant to methicillin); experiment: MIC determination in broth microdilution assay; format: cell-based; details: B: Staphylococcus aureus ATCC33591 (resistant to methicillin); MH-broth microdilution
[3] = system: Enterococcus faecalis ATCC29212; experiment: MIC determination in broth microdilution assay; format: cell-based; details: D: Enterococcus faecalis ATCC29212; MH-broth microdilution
[4] = system: Enterococcus faecium #17501 (vancomycin-resistant clinical isolate); experiment: MIC determination in broth microdilution assay; format: cell-based; details: E: Enterococcus faecium #17501 vancomycin-resistant clinical isolate; MH-broth microdilution
[5] = system: Streptococcus pneumoniae #998 (clinical isolate); experiment: MIC determination in broth microdilution assay; format: cell-based; details: F: Streptococcus pneumoniae #998 clinical isolate; MH-broth microdilution
[6] = system: Eschericia coli ATCC25922; experiment: MIC determination in broth microdilution assay; format: cell-based; details: for MIC: G: Eschericia coli ATCC25922, MH-broth microdilution; for activity against Eschericia coli (in words): Gram-negative prototype, Table 1
[7] = system: Staphylococcus intermedius #2357 (clinical isolate from the Copenhagen area); experiment: MIC determination in broth microdilution assay; format: cell-based; details: C: Staphylococcus intermedius #2357 clinical isolate; MH-broth microdilution
[8] = system: S. aureus ATCC29213; experiment: Killing curve determination (time-kill curve); format: cell-based, Staphylococcus aureus; details: for bactericidal activity (CFU counts per ml in time-kill curve): concentrations above the MIC; for dependence of the bactericidal action: time-kill curve
[9] = system: panel of 10 different non-fastidious bacteria growing aerobically; experiment: Activity against non-fastidious bacteria (panel, discussed in words); format: cell-based; details: for activity against pathogenic Gram-positive bacteria (in words): Gram-positive non-fastidious bacteria, comparison with Licochalcone A
[10] = system: S. aureus E2371; experiment: Killing curve determination (time-kill curve); format: cell-based, Staphylococcus aureus; details: for bactericidal activity (CFU counts per ml in time-kill curve): concentrations above the MIC; for dependence of the bactericidal action: time-kill curve
[11] = system: panel of six strains Helicobacter pylori, includes strains resistant to metronidazole; experiment: MIC determination against Helicobacter pylori (agar dilution); details: 72 h, read-out: MICs against Helicobacter pylori
[12] = MIC of D-001 quoted in the pharmacokinetic profile (strain not named); format: cell-based
[13] = system: panel of anaerobic bacteria (Bacteroides fragilis, Clostridium perfringens, Clostridium difficele); format: cell-based; details: single concentration of compound (100 μM); agar dilution
[14] = Pharmacokinetic studies, intravenous, mice; format: in vivo, female NMRI mice
Protocol: Evaluation of the pharmacokinetic properties of the compounds was done using female NMRI mice (weighing app. 30 g). Test articles were administrated intravenously and Samples of serum were taken at defined time-points. Standards and QC-samples in plasma were prepared and the serum concentrations of the test compounds quantified by HPLC-MS. Prior to analysis, proteins were precipitated by deluding the samples (1:1) (v/v) with 100% acetonitrile followed by centrifugation at 14,000 rpm in 10 min. The supernatant was used for the analysis. A Waters Alliance HPLC-system (Milford, Mass., USA) was coupled to a Quatro Micro triple quadropl mass spectrometer (Micromass, Manchester, UK) operating in positive (ESI) mode. Separation was performed on a XTerra MS C18 column (150*2.1 mm I.D., 3,5 μm particle size) (Waters Milford, Mass., USA). Mobile phase A: 0.1% (v/v) formic acid or 10 mM ammonium acetate pH-adjusted to 9.5 in MilliQ-water, mobile phase B: 100% methanol. The gradient was as follows: 0 min=70% A-30% B, 0-10 min. a linear gradient to 10% A and 90% B this was maintained till 11 min, 11-13 linear gradient to 70% A and 30% B this was maintained till 18 min. The flow rate was 0.20 ml/min, injection volume 10 μl.

Compound | MIC [1] [µM] | MIC [2] [µM] | MIC [3] [µM] | MIC [4] [µM] | MIC [5] [µM] | MIC [6] [µM] | MIC [7] [µM] | bactericidal activity (CFU counts per ml in time-kill curve) [8] | dependence of the bactericidal action [8] | activity against pathogenic Gram-positive bacteria (in words) [9] | activity against Eschericia coli (in words) [6] | bactericidal activity (CFU counts per ml in time-kill curve) [10] | dependence of the bactericidal action [10] | antibacterial effect (in words) ([9]; whole panel of non-fastidious bacteria) | MIC [11] [µM] | MIC [12] | activity against anaerobic bacteria [13] | Cmax ([14]; female, NMRI, mouse, serum, iv, single i.v. dose of 5 mg/ml) [µg/mL] | volume of distribution ([14]; i.v., as indicated by the plasma concentration)
CN(C)CCOc1ccc(-c2ccccc2)cc1/C=C/C(=O)c1cccc(CN(C)C)c1 [SM012, (E)-3-[4-(2-Dimethylamino-ethoxy)-biphenyl-3-yl]-1-(3-dimethylaminomethyl-phenyl)-propenone] | 18.8 (≈ 8.06 µg/mL) | 18.8 (≈ 8.06 µg/mL) | 18.8 (≈ 8.06 µg/mL) | 18.8 (≈ 8.06 µg/mL) | 18.8 (≈ 8.06 µg/mL) | 37.5 (≈ 16.1 µg/mL) | 18.8 (≈ 8.06 µg/mL) |  |  |  |  |  |  |  |  |  |  |  | 
Cc1cc(C)cc(-c2ccc(OCCN(C)C)c(/C=C/C(=O)c3ccccc3N)c2)c1 [SM009, (E)-1-(2-Amino-phenyl)-3-[4-(2-dimethylamino-ethoxy)-3′,5′-dimethyl-biphenyl-3-yl]-propenone] | 4.7 (≈ 1.95 µg/mL) | 4.7 (≈ 1.95 µg/mL) | 9.4 (≈ 3.9 µg/mL) | 4.7 (≈ 1.95 µg/mL) | 18.8 (≈ 7.79 µg/mL) |  | 4.7 (≈ 1.95 µg/mL) |  |  |  |  |  |  |  |  |  |  |  | 
COc1ccc(C(=O)/C=C/c2cc(-c3cc(C)cc(C)c3)ccc2OCC[N+](C)(C)C)c(C[N+](C)(C)C)c1.[I-].[I-] [D-007] | 18.8 | 18.8 | 150 | 75 | 75 | 75 | 9.4 | bactericidal | primarily dependent on incubation time; also recorded: predominantly dependent on the time of incubation with the compound |  |  |  |  |  |  |  |  |  | 
COc1ccc(C(=O)/C=C/c2cc(-c3ccccc3OC)ccc2N2CC[N+](C)(C)CC2)c(F)c1 [D-004, 4-{3-[3-(2-Fluoro-4-methoxy-phenyl)-3-oxo-propenyl]-2′-methoxy-biphenyl-4-yl}-1,1-dimethyl-piperazin-1-ium] | 18.8 | 9.4 | 18.8 | 18.8 | 37.5 | 75 | 9.4 |  |  |  |  |  |  |  |  |  |  |  | 
COc1ccc(C(=O)/C=C/c2cc(-c3ccccc3OC)ccc2N2CCN(C)CC2)c(F)c1 [SM010, (E)-1-(2-Fluoro-4-methoxy-phenyl)-3-[2′-methoxy-4-(4-methyl-piperazin-1-yl)-biphenyl-3-yl]-propenone] | 4.7 (≈ 2.16 µg/mL) | 9.4 (≈ 4.33 µg/mL) | 18.8 (≈ 8.66 µg/mL) | 9.4 (≈ 4.33 µg/mL) | 37.5 (≈ 17.3 µg/mL) |  | 9.4 (≈ 4.33 µg/mL) |  |  |  |  |  |  |  |  |  |  |  | 
C=CC(C)(C)c1cc(/C=C/C(=O)c2ccc(O)cc2)c(OC)cc1O [LicA, Licochalcone A] | 37.5 (≈ 12.7 µg/mL) | 37.5 (≈ 12.7 µg/mL) | 37.5 (≈ 12.7 µg/mL) | 37.5 (≈ 12.7 µg/mL) | 75 (≈ 25.4 µg/mL) |  | 37.5 (≈ 12.7 µg/mL) |  |  | moderate bactericidal activity | only modest or no activity |  |  |  |  |  |  |  | 
C[N+](C)(C)CCOc1ccc(-c2ccccc2)cc1/C=C/C(=O)c1cccc(C[N+](C)(C)C)c1.[I-].[I-] [D-006] | 18.8 | 18.8 | 75 | 37.5 | 150 |  | 18.8 |  |  |  |  | bactericidal | primarily dependent on the concentration of the test compound |  |  |  |  |  | 
COc1ccc(C(=O)/C=C/c2ccccc2)cc1 [4′-MC, 4′methoxy chalcone, reference compound] |  |  |  |  |  |  |  |  |  |  |  |  |  | no antibacterial effect at all |  |  |  |  | 
Cc1cc(C)cc(-c2ccc(OCC[N+](C)(C)C)c(/C=C/C(=O)c3ccccc3N)c2)c1.[I-] [D-003, (2-{3-[3-(2-Amino-phenyl)-3-oxo-propenyl]-3′,5′-dimethyl-biphenyl-4-yloxy}-ethyl)-trimethyl-ammonium; iodide] | 4.7 | 4.7 | 4.7 | 4.7 | 18.8 | 18.8 | 2.4 |  |  |  | high activity | bactericidal | primarily dependent on the concentration of the test compound; also recorded: predominantly dependent on the concentration of the compound |  |  |  |  |  | 
Cc1cc(C)cc(-c2ccc(OCCN(C)C)c(/C=C/C(=O)c3ccc(N)cc3)c2)c1 [SM008, (E)-1-(4-Amino-phenyl)-3-[4-(2-dimethylamino-ethoxy)-3′,5′-dimethyl-biphenyl-3-yl]-propenone] | 9.4 (≈ 3.9 µg/mL) | 9.4 (≈ 3.9 µg/mL) | 18.8 (≈ 7.79 µg/mL) | 9.4 (≈ 3.9 µg/mL) | 18.8 (≈ 7.79 µg/mL) |  | 9.4 (≈ 3.9 µg/mL) |  |  |  |  |  |  |  |  |  |  |  | 
COc1ccc(C(=O)/C=C/c2cc(-c3cc(C)cc(C)c3)ccc2OCCN(C)C)c(CN(C)C)c1 [SM013, (E)-3-[4-(2-Dimethylamino-ethoxy)-3′,5′-dimethyl-biphenyl-3-yl]-1-(2-dimethylaminomethyl-4-methoxy-phenyl)-propenone] | 4.7 (≈ 2.29 µg/mL) | 9.4 (≈ 4.57 µg/mL) | 4.7 (≈ 2.29 µg/mL) | 4.7 (≈ 2.29 µg/mL) | 4.7 (≈ 2.29 µg/mL) | 75 (≈ 36.5 µg/mL) | 18.8 (≈ 9.15 µg/mL) |  |  |  |  |  |  |  |  |  |  |  | 
CCCCN(CCCC)c1ccc(/C=C/C(=O)c2cccc(C[N+](C)(C)C)c2)cc1 [D-005, {3-[3-(4-Dibutylamino-phenyl)-acryloyl]-benzyl}-trimethyl-ammonium] | 4.7 | 9.4 | 18.8 | 9.4 | 37.5 | 75 | 4.7 | bactericidal | primarily dependent on the concentration of the test compound | increased potency |  |  |  |  |  |  |  |  | 
COc1ccc(C(=O)/C=C/c2cc(-c3cc(C)cc(C)c3)ccc2OCCN(C)C)c(Cl)c1 [SM007, (E)-1-(2-Chloro-4-methoxy-phenyl)-3-[4-(2-dimethylamino-ethoxy)-3′,5′-dimethyl-biphenyl-3-yl]-propenone] | 4.7 (≈ 2.18 µg/mL) | 4.7 (≈ 2.18 µg/mL) | 9.4 (≈ 4.36 µg/mL) | 4.7 (≈ 2.18 µg/mL) | 18.8 (≈ 8.72 µg/mL) |  | 4.7 (≈ 2.18 µg/mL) |  |  |  |  |  |  |  |  |  |  |  | 
CCCCN(CCCC)c1ccc(/C=C/C(=O)c2cccc(CN(C)C)c2)cc1 [SM011, (E)-3-(4-Dibutylamino-phenyl)-1-(3-dimethylaminomethyl-phenyl)-propenone] | 9.4 (≈ 3.69 µg/mL) | 9.4 (≈ 3.69 µg/mL) | 9.4 (≈ 3.69 µg/mL) | 9.4 (≈ 3.69 µg/mL) | 18.8 (≈ 7.38 µg/mL) |  | 9.4 (≈ 3.69 µg/mL) |  |  |  |  |  |  |  |  |  |  |  | 
COc1ccc(C(=O)/C=C/c2cc(-c3cc(C)cc(C)c3)ccc2OCC[N+](C)(C)C)c(Cl)c1.[I-] [D-001, (2-{3-[3-(2-Chloro-4-methoxy-phenyl)-3-oxo-propenyl]-3′,5′-dimethyl-biphenyl-4-yloxy}-ethyl)-trimethyl-ammonium; iodide] | 2.4 | 4.7 | 4.7 | 4.7 | 18.8 | 37.5 | 2.4 |  |  | increased potency |  |  |  |  | 50 to 100 | approximately 1 μg/mi | activity against all microorganisms within the test panel | 126 | very low
Cc1cc(C)cc(-c2ccc(OCC[N+](C)(C)C)c(/C=C/C(=O)c3ccc(N)cc3)c2)c1 [D-002, (2-{3-[3-(4-Amino-phenyl)-3-oxo-propenyl]-3′,5′-dimethyl-biphenyl-4-yloxy}-ethyl)-trimethyl-ammonium; iodide] | 9.4 | 9.4 | 18.8 | 18.8 | 18.8 | 75 | 9.4 |  |  |  |  |  |  |  |  |  |  |  | 
